Reference: PMC9653409, “Generative deep learning enables the discovery of a potent and selective RIPK1 inhibitor” (Nature Communications, 2022)

Legend:
Test in all cases: Kinase inhibitory activity profiling of RI-962@10 µM (406 kinases, Eurofins)
Format in all cases: biochemical
[1] = molecular target: panel of human kinases (kinase named in endpoint) (Homo sapiens, UniProt O14757); details: 10 µM; read-out: Activity (%), CHK1(h)
Description: (§1) In vitro kinase activity assays were conducted through the Kinase Profiling Services provided by Eurofins (Eurofins, France). The protocol for the RIPK1 assay is briefly described as follows (Protocols for other kinases are very similar and can be found in http://www.eurofins.com/pharmadiscovery). RIPK1 kinase was incubated with the test compound in assay buffer containing 8 mM MOPS (pH 7.0), 0.2 mM EDTA, 250 μM […], 10 mM magnesium acetate, and 10 μM [γ-33P]-ATP for 15 min at room temperature. The reaction was initiated by the addition of the Mg/ATP mixture. After incubation for 40 min at room temperature, and the reaction was stopped by the addition of 3% phosphoric acid. A 10 μL portion of the reaction mixture was then spotted onto a P30 filter mat and washed four times for 4 min in 0.425% phosphoric acid and once in methanol prior to drying and scintillation counting.

[2] = molecular target: panel of human kinases (kinase named in endpoint) (Homo sapiens, UniProt O15264); details: 10 µM; read-out: Activity (%), SAPK4(h)
Description: as §1

[3] = molecular target: panel of human kinases (kinase named in endpoint) (Homo sapiens, UniProt O43293); details: 10 µM; read-out: Activity (%), ZIPK(h)
Description: as §1

[4] = molecular target: panel of human kinases (kinase named in endpoint) (Homo sapiens, UniProt O60285); details: 10 µM; read-out: Activity (%), ARK5(h)
Description: as §1

[5] = molecular target: panel of human kinases (kinase named in endpoint) (Homo sapiens, UniProt P08581, Y1230C); details: 10 µM; read-out: Activity (%), Met(Y1248C)(h)
Description: as §1

[6] = molecular target: panel of human kinases (kinase named in endpoint) (Homo sapiens, UniProt P10721, V560G); details: 10 µM; read-out: Activity (%), cKit(V560G)(h)
Description: as §1

[7] = molecular target: panel of human kinases (kinase named in endpoint) (Homo sapiens, UniProt P29322); details: 10 µM; read-out: Activity (%), EphA8(h)
Description: as §1

[8] = molecular target: panel of human kinases (kinase named in endpoint) (Homo sapiens, UniProt P33981); details: 10 µM; read-out: Activity (%), TTK(h)
Description: as §1

[9] = molecular target: panel of human kinases (kinase named in endpoint) (Homo sapiens, UniProt P35968); details: 10 µM; read-out: Activity (%), KDR(h)
Description: as §1

[10] = molecular target: panel of human kinases (kinase named in endpoint) (Homo sapiens, UniProt P43250); details: 10 µM; read-out: Activity (%), GRK6(h)
Description: as §1

[11] = molecular target: panel of human kinases (kinase named in endpoint) (Homo sapiens, UniProt P52564); details: 10 µM; read-out: Activity (%), MKK6(h)
Description: as §1

[12] = molecular target: panel of human kinases (kinase named in endpoint) (Homo sapiens, UniProt P53778); details: 10 µM; read-out: Activity (%), SAPK3(h)
Description: as §1

[13] = molecular target: panel of human kinases (kinase named in endpoint) (Homo sapiens, UniProt P54760); details: 10 µM; read-out: Activity (%), EphB4(h)
Description: as §1

[14] = molecular target: panel of human kinases (kinase named in endpoint) (Homo sapiens, UniProt Q13237); details: 10 µM; read-out: Activity (%), PRKG2(h)
Description: as §1

[15] = molecular target: panel of human kinases (kinase named in endpoint) (Homo sapiens, UniProt Q13882); details: 10 µM; read-out: Activity (%), BRK(h)
Description: as §1

[16] = molecular target: panel of human kinases (kinase named in endpoint) (Homo sapiens, UniProt Q15418); details: 10 µM; read-out: Activity (%), Rsk1(h)
Description: as §1

[17] = molecular target: panel of human kinases (kinase named in endpoint) (Homo sapiens, UniProt Q16539, T106M); details: 10 µM; read-out: Activity (%), SAPK2a(T106M)(h)
Description: as §1

[18] = molecular target: panel of human kinases (kinase named in endpoint) (Homo sapiens, UniProt Q7KZI7); details: 10 µM; read-out: Activity (%), PAR-1Bα(h)
Description: as §1

[19] = molecular target: panel of human kinases (kinase named in endpoint) (Homo sapiens, UniProt Q86UX6); details: 10 µM; read-out: Activity (%), STK32C(h)
Description: as §1

[20] = molecular target: panel of human kinases (kinase named in endpoint) (Homo sapiens, UniProt Q8N568); details: 10 µM; read-out: Activity (%), DCAMKL2(h)
Description: as §1

[21] = molecular target: panel of human kinases (kinase named in endpoint) (Homo sapiens, UniProt Q92519); details: 10 µM; read-out: Activity (%), TRB2(h)
Description: as §1

[22] = molecular target: panel of human kinases (kinase named in endpoint) (Homo sapiens, UniProt Q9H2G2); details: 10 µM; read-out: Activity (%), SLK(h)
Description: as §1

[23] = molecular target: panel of human kinases (kinase named in endpoint) (Homo sapiens, UniProt Q9H422); details: 10 µM; read-out: Activity (%), HIPK3(h)
Description: as §1

[24] = molecular target: panel of human kinases (kinase named in endpoint) (Homo sapiens, UniProt Q9NYY3); details: 10 µM; read-out: Activity (%), Snk(h)
Description: as §1

[25] = molecular target: panel of human kinases (kinase named in endpoint) (Homo sapiens, UniProt Q9Y463); details: 10 µM; read-out: Activity (%), DYRK1B(h)
Description: as §1

[26] = molecular target: panel of human kinases (kinase named in endpoint) (Mus musculus, UniProt Q4JIM5); details: 10 µM; read-out: Activity (%), Arg(m)
Description: as §1

Chain of panel of human kinases (kinase named in endpoint) (Homo sapiens, UniProt P10721, V560G) (P10721 26-976 V560G): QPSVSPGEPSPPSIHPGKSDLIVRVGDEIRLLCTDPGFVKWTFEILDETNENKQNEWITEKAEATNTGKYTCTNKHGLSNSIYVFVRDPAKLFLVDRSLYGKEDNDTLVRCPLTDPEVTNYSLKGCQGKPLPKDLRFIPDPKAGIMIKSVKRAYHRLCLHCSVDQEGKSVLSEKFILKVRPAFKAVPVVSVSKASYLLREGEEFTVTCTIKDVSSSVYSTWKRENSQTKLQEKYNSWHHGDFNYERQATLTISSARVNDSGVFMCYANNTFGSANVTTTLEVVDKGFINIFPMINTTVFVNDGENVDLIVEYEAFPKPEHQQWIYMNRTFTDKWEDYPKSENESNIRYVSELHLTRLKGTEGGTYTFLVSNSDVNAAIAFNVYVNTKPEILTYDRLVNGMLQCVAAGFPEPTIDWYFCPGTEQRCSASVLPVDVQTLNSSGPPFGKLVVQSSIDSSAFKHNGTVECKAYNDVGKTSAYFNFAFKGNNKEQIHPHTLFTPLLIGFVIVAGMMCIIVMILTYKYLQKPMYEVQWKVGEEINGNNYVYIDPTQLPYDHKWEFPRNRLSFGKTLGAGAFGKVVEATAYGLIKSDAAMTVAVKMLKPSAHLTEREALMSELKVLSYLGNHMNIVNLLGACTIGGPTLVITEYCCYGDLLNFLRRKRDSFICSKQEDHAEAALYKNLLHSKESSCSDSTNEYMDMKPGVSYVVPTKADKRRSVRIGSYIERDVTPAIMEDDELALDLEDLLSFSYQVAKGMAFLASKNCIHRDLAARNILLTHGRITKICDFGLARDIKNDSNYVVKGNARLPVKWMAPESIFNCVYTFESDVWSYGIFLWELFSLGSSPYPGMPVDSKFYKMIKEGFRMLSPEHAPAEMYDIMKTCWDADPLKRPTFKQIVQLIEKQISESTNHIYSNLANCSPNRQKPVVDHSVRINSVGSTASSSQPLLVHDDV
Chain of panel of human kinases (kinase named in endpoint) (Homo sapiens, UniProt O60285) (O60285 whole entry): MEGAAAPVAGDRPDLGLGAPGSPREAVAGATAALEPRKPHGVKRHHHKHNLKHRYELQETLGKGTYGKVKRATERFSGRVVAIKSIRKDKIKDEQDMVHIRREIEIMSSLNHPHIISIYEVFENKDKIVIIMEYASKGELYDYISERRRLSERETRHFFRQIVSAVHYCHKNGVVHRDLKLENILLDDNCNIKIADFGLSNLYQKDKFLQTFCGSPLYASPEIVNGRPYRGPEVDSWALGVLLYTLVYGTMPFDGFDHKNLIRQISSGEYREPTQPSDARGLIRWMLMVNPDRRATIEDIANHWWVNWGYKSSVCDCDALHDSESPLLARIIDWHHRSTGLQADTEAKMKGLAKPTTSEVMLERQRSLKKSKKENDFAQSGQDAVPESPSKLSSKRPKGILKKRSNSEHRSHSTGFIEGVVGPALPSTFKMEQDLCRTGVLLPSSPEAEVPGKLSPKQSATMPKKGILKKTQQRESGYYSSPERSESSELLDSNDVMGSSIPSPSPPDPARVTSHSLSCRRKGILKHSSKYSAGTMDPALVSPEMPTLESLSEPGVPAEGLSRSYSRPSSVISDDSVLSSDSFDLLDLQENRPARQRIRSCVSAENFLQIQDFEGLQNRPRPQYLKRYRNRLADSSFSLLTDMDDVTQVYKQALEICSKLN
Chain of panel of human kinases (kinase named in endpoint) (Homo sapiens, UniProt Q86UX6) (Q86UX6 whole entry): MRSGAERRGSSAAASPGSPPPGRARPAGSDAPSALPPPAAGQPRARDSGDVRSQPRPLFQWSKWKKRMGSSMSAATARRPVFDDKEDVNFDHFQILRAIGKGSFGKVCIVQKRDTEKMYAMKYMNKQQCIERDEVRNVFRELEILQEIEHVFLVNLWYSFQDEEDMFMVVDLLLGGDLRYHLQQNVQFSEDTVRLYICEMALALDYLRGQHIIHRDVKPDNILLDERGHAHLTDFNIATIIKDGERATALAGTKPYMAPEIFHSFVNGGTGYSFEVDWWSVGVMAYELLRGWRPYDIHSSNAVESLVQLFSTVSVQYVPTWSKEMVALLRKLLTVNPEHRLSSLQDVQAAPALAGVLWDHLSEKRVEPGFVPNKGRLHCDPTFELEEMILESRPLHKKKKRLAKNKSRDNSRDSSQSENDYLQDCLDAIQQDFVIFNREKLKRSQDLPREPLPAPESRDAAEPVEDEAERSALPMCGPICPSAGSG
Chain of panel of human kinases (kinase named in endpoint) (Homo sapiens, UniProt O15264) (O15264 whole entry): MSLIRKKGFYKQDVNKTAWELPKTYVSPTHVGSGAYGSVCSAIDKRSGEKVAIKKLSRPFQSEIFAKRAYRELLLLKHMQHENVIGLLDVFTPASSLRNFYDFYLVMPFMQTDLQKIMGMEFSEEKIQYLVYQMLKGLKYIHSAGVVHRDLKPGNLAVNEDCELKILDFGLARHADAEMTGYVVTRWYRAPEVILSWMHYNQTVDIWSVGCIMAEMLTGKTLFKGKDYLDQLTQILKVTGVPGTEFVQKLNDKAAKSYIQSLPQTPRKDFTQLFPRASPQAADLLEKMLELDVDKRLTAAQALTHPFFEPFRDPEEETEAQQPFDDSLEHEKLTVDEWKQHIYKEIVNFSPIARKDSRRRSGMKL
Chain of panel of human kinases (kinase named in endpoint) (Homo sapiens, UniProt P33981) (P33981 whole entry): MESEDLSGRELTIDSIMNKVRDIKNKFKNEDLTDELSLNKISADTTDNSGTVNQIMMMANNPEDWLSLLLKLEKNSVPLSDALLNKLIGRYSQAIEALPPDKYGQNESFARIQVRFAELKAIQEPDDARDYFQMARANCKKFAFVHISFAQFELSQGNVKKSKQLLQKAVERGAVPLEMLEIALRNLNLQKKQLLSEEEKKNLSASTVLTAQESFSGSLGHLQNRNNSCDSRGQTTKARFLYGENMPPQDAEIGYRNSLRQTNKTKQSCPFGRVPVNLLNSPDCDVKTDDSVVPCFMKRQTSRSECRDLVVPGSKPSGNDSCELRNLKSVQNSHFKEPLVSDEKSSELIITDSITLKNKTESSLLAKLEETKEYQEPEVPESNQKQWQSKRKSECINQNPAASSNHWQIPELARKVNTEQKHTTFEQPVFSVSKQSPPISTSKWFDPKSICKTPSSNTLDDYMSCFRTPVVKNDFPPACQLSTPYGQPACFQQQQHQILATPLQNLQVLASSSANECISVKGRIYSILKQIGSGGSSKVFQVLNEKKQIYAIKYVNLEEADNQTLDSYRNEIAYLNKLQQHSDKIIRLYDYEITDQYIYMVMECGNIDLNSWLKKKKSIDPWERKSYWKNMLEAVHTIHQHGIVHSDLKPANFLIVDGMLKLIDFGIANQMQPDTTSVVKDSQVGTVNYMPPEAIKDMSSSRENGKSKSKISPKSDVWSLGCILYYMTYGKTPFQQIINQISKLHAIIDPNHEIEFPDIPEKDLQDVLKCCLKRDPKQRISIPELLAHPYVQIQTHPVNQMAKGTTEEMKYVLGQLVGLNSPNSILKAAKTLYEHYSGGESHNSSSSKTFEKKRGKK
Chain of panel of human kinases (kinase named in endpoint) (Homo sapiens, UniProt P53778) (P53778 whole entry): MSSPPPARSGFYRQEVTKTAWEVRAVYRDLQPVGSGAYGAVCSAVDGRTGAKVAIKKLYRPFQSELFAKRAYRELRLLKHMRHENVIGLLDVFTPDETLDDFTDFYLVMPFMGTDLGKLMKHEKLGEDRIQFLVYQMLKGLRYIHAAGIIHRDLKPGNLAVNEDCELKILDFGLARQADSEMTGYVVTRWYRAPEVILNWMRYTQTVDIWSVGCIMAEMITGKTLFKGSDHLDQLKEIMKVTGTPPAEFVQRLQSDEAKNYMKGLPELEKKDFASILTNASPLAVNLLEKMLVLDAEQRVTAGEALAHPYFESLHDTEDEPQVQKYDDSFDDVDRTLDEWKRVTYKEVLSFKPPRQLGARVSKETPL
Chain of panel of human kinases (kinase named in endpoint) (Homo sapiens, UniProt Q9H422) (Q9H422 whole entry): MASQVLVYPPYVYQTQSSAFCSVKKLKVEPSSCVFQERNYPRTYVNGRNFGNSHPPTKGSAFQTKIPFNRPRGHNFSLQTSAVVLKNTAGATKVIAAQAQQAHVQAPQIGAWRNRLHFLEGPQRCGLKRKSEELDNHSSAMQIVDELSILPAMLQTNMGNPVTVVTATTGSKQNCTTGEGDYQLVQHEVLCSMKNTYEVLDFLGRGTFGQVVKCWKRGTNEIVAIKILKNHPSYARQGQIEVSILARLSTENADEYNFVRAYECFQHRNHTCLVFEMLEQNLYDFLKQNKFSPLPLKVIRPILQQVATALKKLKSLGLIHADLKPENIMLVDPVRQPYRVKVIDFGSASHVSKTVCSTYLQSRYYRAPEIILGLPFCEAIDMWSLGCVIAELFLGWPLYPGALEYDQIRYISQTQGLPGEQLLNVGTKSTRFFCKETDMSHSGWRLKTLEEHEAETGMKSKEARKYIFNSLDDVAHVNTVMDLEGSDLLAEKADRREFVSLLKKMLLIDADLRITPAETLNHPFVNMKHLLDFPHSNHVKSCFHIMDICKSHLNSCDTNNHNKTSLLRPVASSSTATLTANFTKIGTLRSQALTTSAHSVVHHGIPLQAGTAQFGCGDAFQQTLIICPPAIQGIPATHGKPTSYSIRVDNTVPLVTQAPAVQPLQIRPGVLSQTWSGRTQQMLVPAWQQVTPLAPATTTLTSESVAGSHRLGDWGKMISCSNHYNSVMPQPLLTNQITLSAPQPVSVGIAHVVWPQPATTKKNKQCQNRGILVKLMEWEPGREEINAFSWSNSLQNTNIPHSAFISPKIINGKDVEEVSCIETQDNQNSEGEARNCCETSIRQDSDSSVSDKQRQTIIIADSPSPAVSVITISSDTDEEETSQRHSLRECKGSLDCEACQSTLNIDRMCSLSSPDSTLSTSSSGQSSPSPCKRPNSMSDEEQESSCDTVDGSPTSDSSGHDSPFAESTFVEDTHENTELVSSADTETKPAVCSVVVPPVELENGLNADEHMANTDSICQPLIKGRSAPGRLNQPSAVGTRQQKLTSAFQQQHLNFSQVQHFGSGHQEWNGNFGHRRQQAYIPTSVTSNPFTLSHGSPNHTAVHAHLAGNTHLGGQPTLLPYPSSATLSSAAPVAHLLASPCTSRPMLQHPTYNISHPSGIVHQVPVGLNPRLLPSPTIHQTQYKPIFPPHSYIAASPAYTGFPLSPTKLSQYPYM

With `CC(C)C(=O)Nc1nc2cc(-c3ccc4c(c3)c(C(=O)NC(C)c3ccccc3)cn4C)ccn2n1` (centres unmarked) [RI-962] the activity at 10 µM [1] was 124%, the activity at 10 µM [2] was 91% and the activity at 10 µM [3] was 102%. It also gave an activity at 10 µM [4] of 83%, an activity at 10 µM [5] of 116% and an activity at 10 µM [6] of 95%. It also gave an activity at 10 µM [7] of 88%, an activity at 10 µM [8] of 92% and an activity at 10 µM [9] of 92%. The activity at 10 µM [10] was 108%, the activity at 10 µM [11] was 97% and the activity at 10 µM [12] was 100%. The activity at 10 µM [13] was 90%, the activity at 10 µM [14] was 105% and the activity at 10 µM [15] was 101%. The activity at 10 µM [16] was 120%, the activity at 10 µM [17] was 86% and the activity at 10 µM [18] was 103%. The activity at 10 µM [19] was 76%, the activity at 10 µM [20] was 132% and the activity at 10 µM [21] was 91%. The activity at 10 µM [22] was 84%, the activity at 10 µM [23] was 89% and the activity at 10 µM [24] was 79%. It also gave an activity at 10 µM [25] of 100% and an activity at 10 µM [26] of 90%.
